Test system: Beet Armyworm (Spodoptera exigua)
Assay: Bioassay on Beet Armyworm (BAW), 128-well diet tray assay
Type: in vivo
Conditions: percent mortality of second instar larvae, 50 μg/cm^2 on artificial diet, five to seven days, 25° C.; Table 3
Experimental: Certain molecules disclosed in this document were tested against BAW and CEW and CL using procedures described in the following examples. In the reporting of the results, the “BAW & CEW & CL Rating Table” was used (See Table Section).
Bioassays on BAW (Spodoptera exigua)
Bioassays on BAW were conducted using a 128-well diet tray assay. one to five second instar BAW larvae were placed in each well (3 mL) of the diet tray that had been previously filled with 1 mL of artificial diet to which 50 μg/cm^2 of the test compound (dissolved in 50 μL of 90:10 acetone-water mixture) had been applied (to each of eight wells) and then allowed to dry. Trays were covered with a clear self-adhesive cover, and held at 25° C., 14:10 light-dark for five to seven days. Percent mortality was recorded for the larvae in each well; activity in the eight wells was then averaged. The results are indicated in the table entitled “Table 3: Assay Results” (See Table Section).

Compound	BAW Rating
O=C(NCc1ccc(/C=C/C(c2cc(Cl)c(Cl)c(Cl)c2)C(F)(F)F)cc1Cl)C1CC1 (stereo not drawn) [CC11]	A (50-100)
Fc1cc(/C=C/C(c2cc(Cl)cc(Cl)c2)C(F)(F)F)ccc1-n1cncn1 (stereo not drawn) [DC48]	A (50-100)
O=C(C1CC1)N(Cc1ccccn1)Cc1ccc(/C=C/C(c2cc(Cl)c(Cl)c(Cl)c2)C(F)(F)F)cc1C(F)(F)F (stereo not drawn) [CC29, (E)-N-(Pyridin-2-ylmethyl)-N-(4-(4,4,4-trifluoro-3-(3,4,5-trichlorophenyl)but-1-enyl)-2-(trifluoromethyl)benzyl)cyclopropanecarboxamide]	A (50-100)
O=C(CC(F)(F)F)NCC(=O)n1ccc2cc(/C=C/C(c3cc(Cl)c(F)c(Cl)c3)C(F)(F)F)ccc21 (stereo not drawn) [BC13, (E)-N-(2-(5-(3-(3,5-Dichloro-4-fluorophenyl)-4,4,4-trifluorobut-1-en-1-yl)-1H-indol-1-yl)-2-oxoethyl)-3,3,3-trifluoropropanamide]	A (50-100)
Cc1cc(/C=C/C(c2cc(Cl)cc(Cl)c2)C(F)(F)F)ccc1C(=O)NCc1ccccc1 (stereo not drawn) [AC11]	A (50-100)
O=C(Cc1ccc(Cl)nc1)NCc1ccc(/C=C/C(c2cc(Cl)c(Cl)c(Cl)c2)C(F)(F)F)cc1Cl (stereo not drawn) [CC14]	A (50-100)
Cc1cc(/C=C/C(c2cc(Cl)c(Cl)c(Cl)c2)C(F)(F)F)ccc1C(=O)NC1CSC1 (stereo not drawn) [AC23]	A (50-100)
Cc1cc(/C=C/C(c2cc(Cl)c(Cl)c(Cl)c2)C(F)(F)F)cc(C#N)c1-n1cncn1 (stereo not drawn) [DC45]	A (50-100)
Cc1cc(/C=C/C(c2cc(Cl)cc(Cl)c2)C(F)(F)F)ccc1C(=O)NC1CSC1 (stereo not drawn) [AC10]	A (50-100)
O=C(NCc1ccc(/C=C/C(c2cc(Cl)cc(Cl)c2)C(F)(F)F)cc1)C1CC1 (stereo not drawn) [CC2]	A (50-100)
FC(F)(F)c1cc(/C=C/C(c2cc(Cl)cc(Cl)c2)C(F)(F)F)ccc1-n1cncn1 (stereo not drawn) [DC51]	A (50-100)
O=C(NCc1ccc(Cl)nc1)c1ccc(/C=C/C(c2cc(Cl)c(Cl)c(Cl)c2)C(F)(F)F)cc1C(F)(F)F (stereo not drawn) [AC36]	A (50-100)
Cc1cc(/C=C/C(c2cc(Cl)cc(Cl)c2)C(F)(F)F)ccc1C(=O)NCc1cncnc1 (stereo not drawn) [AC39, 4-((E)-3-(3,5-Dichlorophenyl)-4,4,4-trifluorobut-1-enyl)-2-methyl-N-((pyrimidin-5-yl)methyl)benzamide]	A (50-100)
O=C(CC(F)(F)F)NCc1ccc(/C=C/C(c2cc(Cl)c(Cl)c(Cl)c2)C(F)(F)F)cc1F (stereo not drawn) [CC27]	A (50-100)
Cc1cc(/C=C/C(c2cc(Cl)c(Cl)c(Cl)c2)C(F)(F)F)ccc1-n1cncn1 (stereo not drawn) [DC63]	A (50-100)
Cc1cc(/C=C/C(c2cc(Cl)c(F)c(Cl)c2)C(F)(F)F)ccc1C(=O)NCc1cc(Cl)ccn1 (stereo not drawn) [AC77]	A (50-100)
O=C(CC(F)(F)F)NNc1ccc(/C=C/C(c2cc(Cl)c(Cl)c(Cl)c2)C(F)(F)F)cc1 (stereo not drawn) [CC51]	A (50-100)
Cc1cc(/C=C/C(c2ccc(Cl)c(Cl)c2)C(F)(F)F)ccc1C(=O)NCc1ccc(Cl)nc1 (stereo not drawn) [AC37]	A (50-100)
CN1CCC(NC(=O)c2ccc(/C=C/C(c3cc(Cl)c(Cl)c(Cl)c3)C(F)(F)F)cc2Br)CC1 (stereo not drawn) [AC106, (E)-2-Bromo-N-(1-methylpiperidin-4-yl)-4-(4,4,4-trifluoro-3-(3,4,5-trichlorophenyl)but-1-en-1-yl)benzamide]	A (50-100)
FC(F)(F)C(/C=C/c1ccc(-n2cncn2)cc1)c1ccc(Cl)cc1 (stereo not drawn) [DC4]	A (50-100)
Fc1ccc(C(/C=C/c2ccc(-n3cncn3)cc2)C(F)(F)F)cc1 (stereo not drawn) [DC7]	A (50-100)
O=C(CNC(=O)c1ccc(/C=C/C(c2cc(Cl)c(Cl)c(Cl)c2)C(F)(F)F)cc1Cl)NCC(F)(F)F (stereo not drawn) [AC64, (E)-2-Chloro-N-(2-oxo-2-((2,2,2-trifluoroethyl)amino)ethyl)-4-(4,4,4-trifluoro-3-(3,4,5-trichlorophenyl)but-1-en-1-yl)benzamide]	A (50-100)
Cc1cc(/C=C/C(c2cc(Cl)cc(Cl)c2)C(F)(F)F)ccc1C(=O)NCc1ccc(Cl)cc1 (stereo not drawn) [AC48]	A (50-100)
Cc1cc(/C=C/C(c2cc(Cl)cc(Cl)c2)C(F)(F)F)ccc1C(=O)NCc1nc2ccccc2s1 (stereo not drawn) [AC42]	A (50-100)
Cc1cc(/C=C/C(c2cc(Cl)cc(Cl)c2)C(F)(F)F)ccc1C(=O)NN(C)c1ccccc1F (stereo not drawn) [AC45]	A (50-100)
C=CCNC(=O)CNC(=O)c1ccc(/C=C/C(c2cc(Cl)c(Cl)c(Cl)c2)C(F)(F)F)cc1Br (stereo not drawn) [AC111]	A (50-100)
CCc1cc(/C=C/C(c2cc(Cl)c(F)c(Cl)c2)C(F)(F)F)ccc1C(=O)NCc1ccc(Cl)nc1 (stereo not drawn) [AC72]	A (50-100)

Compound	BAW Rating
COc1c(Cl)cc(C(/C=C/c2ccc(-n3cncn3)cc2)C(F)(F)F)cc1Cl (stereo not drawn) [DC20]	A (50-100)
O=C(CC(F)(F)F)NCc1ccc(/C=C/C(c2cc(Cl)cc(Cl)c2)C(F)(F)F)cc1 (stereo not drawn) [CC3]	A (50-100)
O=C(NCc1ccc(/C=C/C(c2cc(Cl)cc(Cl)c2)C(F)(F)F)cc1Cl)C1CC1 (stereo not drawn) [CC8]	A (50-100)
O=C(NNc1ccc(/C=C/C(c2cc(Cl)c(Cl)c(Cl)c2)C(F)(F)F)cc1)C1CC1 (stereo not drawn) [CC50, (E)-N′-(4-(4,4,4-Trifluoro-3-(3,4,5-trichlorophenyl)but-1-en-1-yl)phenyl)cyclopropanecarbohydrazide]	A (50-100)
O=C(NCc1ccc(/C=C/C(c2cc(Cl)c(Cl)c(Cl)c2)C(F)(F)F)cc1F)C1CC1 (stereo not drawn) [CC28]	A (50-100)
N#Cc1cc(/C=C\C(c2cc(Cl)c(F)c(Cl)c2)C(F)(F)F)ccc1-n1cncn1 (stereo not drawn) [DC46]	A (50-100)
O=C(CNC(=O)c1ccc(/C=C/C(c2cc(Cl)cc(Cl)c2)C(F)(F)F)cc1F)NCC(F)(F)F (stereo not drawn) [AC62]	A (50-100)
CC(=O)Nc1ncn(-c2ccc(/C=C/C(c3cc(Cl)cc(Cl)c3)C(F)(F)F)cc2C#N)n1 (stereo not drawn) [DC39]	A (50-100)
O=C(CC(F)(F)F)NCc1ccc(/C=C/C(c2cc(Cl)c(Cl)c(Cl)c2)C(F)(F)F)cc1C(F)(F)F (stereo not drawn) [CC24]	A (50-100)
O=C(NC1C[S+]([O-])C1)c1ccc(/C=C/C(c2cc(Cl)c(F)c(Cl)c2)C(F)(F)F)cc1F (stereo not drawn) [AC87]	A (50-100)
N#CCN1CCC(NC(=O)c2ccc(/C=C/C(c3cc(Cl)c(Cl)c(Cl)c3)C(F)(F)F)cc2Br)CC1 (stereo not drawn) [AC107]	B (More than 0-Less than 50)
CCNC(=O)NCc1ccc(/C=C/C(c2cc(Cl)cc(Cl)c2)C(F)(F)F)cc1Cl (stereo not drawn) [CC31, (E)-1-(2-Chloro-4-(3-(3,5-dichlorophenyl)-4,4,4-trifluorobut-1-en-1-yl)benzyl)-3-ethylurea]	B (More than 0-Less than 50)
CCNC(=O)NCc1ccc(/C=C/C(c2cc(Cl)c(Cl)c(Cl)c2)C(F)(F)F)cc1C(F)(F)F (stereo not drawn) [CC32]	A (50-100)
Cc1cc(/C=C/C(c2cc(Cl)cc(Cl)c2)C(F)(F)F)ccc1C(=O)NCc1nnc(C2CC2)o1 (stereo not drawn) [AC89, (E)-N-((5-Cyclopropyl-1,3,4-oxadiazol-2-yl)methyl)-4-(3-(3,5-dichlorophenyl)-4,4,4-trifluorobut-1-en-1-yl)-2-methylbenzamide]	A (50-100)
O=C(NC1CCN(C2COC2)CC1)c1ccc(/C=C/C(c2cc(Cl)c(Cl)c(Cl)c2)C(F)(F)F)cc1Br (stereo not drawn) [AC108, (E)-2-Bromo-N-(1-(oxetan-3-yl)piperidin-4-yl)-4-(4,4,4-trifluoro-3-(3,4,5-trichlorophenyl)but-1-en-1-yl)benzamide]	B (More than 0-Less than 50)
O=C(CC(F)(F)F)NC1CCc2cc(/C=C/C(c3cc(Cl)c(F)c(Cl)c3)C(F)(F)F)ccc21 (stereo not drawn) [BC8]	A (50-100)
Cc1cc(/C=C/C(c2cc(Cl)cc(Cl)c2)C(F)(F)F)ccc1C(=O)NCC1CCCO1 (stereo not drawn) [AC118]	A (50-100)
O=C(NCc1ncc(/C=C/C(c2cc(Cl)c(Cl)c(Cl)c2)C(F)(F)F)cc1Cl)C1CC1 (stereo not drawn) [CC45]	A (50-100)
O=C(CNC(=S)c1ccc(/C=C/C(c2cc(Cl)c(Cl)c(Cl)c2)C(F)(F)F)cc1Br)NCC(F)(F)F (stereo not drawn) [AC91, (E)-2-(2-Bromo-4-(4,4,4-trifluoro-3-(3,4,5-trichlorophenyl)but-1-en-1-yl)phenylthioamido)-N-(2,2,2-trifluoroethyl)acetamide]	A (50-100)
O=C(NCc1ccc(/C=C/C(c2ccc(Cl)c(Cl)c2)C(F)(F)F)cc1Cl)C1CC1 (stereo not drawn) [CC17]	A (50-100)
Cc1cc(C)cc(C(/C=C/c2ccc(-n3cncn3)cc2)C(F)(F)F)c1 (stereo not drawn) [DC11]	A (50-100)
N#Cc1cc(/C=C/C(c2cc(Cl)c(Cl)c(Cl)c2)C(F)(F)F)ccc1-n1cnc([N+](=O)[O-])n1 (stereo not drawn) [DC40, (E)-2-(3-Nitro-1H-1,2,4-triazol-1-yl)-5-(4,4,4-trifluoro-3-(3,4,5-trichlorophenyl)but-1-en-1-yl)benzonitrile]	A (50-100)
Cc1cc(/C=C/C(c2cc(Cl)cc(Cl)c2)C(F)(F)F)ccc1C(=O)NCC(=O)NC1CC1 (stereo not drawn) [AC40]	A (50-100)
COc1cc(/C=C/C(c2cc(Cl)c(F)c(Cl)c2)C(F)(F)F)ccc1C(=O)NC1CS(=O)(=O)C1 (stereo not drawn) [AC85]	A (50-100)
Fc1cc(F)cc(C(/C=C/c2ccc(-n3cncn3)cc2)C(F)(F)F)c1 (stereo not drawn) [DC8]	A (50-100)
O=C(CC(F)(F)F)NCc1ncc(/C=C/C(c2cc(Cl)c(Cl)c(Cl)c2)C(F)(F)F)cc1Cl (stereo not drawn) [CC44, (E)-N-((3-Chloro-5-(4,4,4-trifluoro-3-(3,4,5-trichlorophenyl)-but-1-en-1-yl)pyridin-2-yl)methyl)-3,3,3-trifluoropropanamide]	A (50-100)
CCNC(=O)NCc1ccc(/C=C/C(c2cc(Cl)c(Cl)c(Cl)c2)C(F)(F)F)cc1Br (stereo not drawn) [CC33]	A (50-100)
